Data as given in US20250257045A1, “CAGED GLUTAMATE UNLEASHED BY BLUE AND GREEN LIGHT: INNOVATIVE PHOTOSENSITIVE CONTROL” (Florida Institute of Technology, Inc., priority 2024, published 2025).

How the values were obtained:
[1] = Photolysis (uncaging) kinetics under blue/green LED irradiation; quantum yield by UV and 1H NMR with ferrioxalate actinometry; assay type: physicochemical; conditions: for Φ (quantum yield / QE of uncaging): irradiation at 467 nm (TC) or 520 nm (BODIPY), LED flux 12.8 Wm-2, 23° C.; for εΦ (photo-cross-section): product of ε and Φ; for wavelength of visible light that activates / uncages the cage: single photon visible light
Procedure: (§1) After purification, the organic solvent was removed by rotovap under vacuum and the remaining aqueous concentrate was subjected to a freeze-drying system (lyophilizer-Freezone 4.5 made by LABCONCO) to isolate the purified final product. The preparation of the caged compounds and their corresponding purifications were conducted under red light in the dark. Final products were covered with aluminum foil and stored at −20° C. until further needed. Each product was characterized by Proton Nuclear Magnetic Resonance (hereinafter “1H NMR”) and Carbon-13 Nuclear Magnetic Resonance (hereinafter “^13C NMR”) using Bruker 400 MHZ NMR spectrometer instrumentation. NMR solvents such as CDCl3 and (CD3)2CO were purchased from the Cambridge Isotope Laboratories. Chemical shifts were reported relative to the internal standard peak of tetramethylsilane (TMS). […] Referring to FIG. 10, irradiation rigs constructed of two round metal containers stacked with blue LED strips (467 nm) and green LED strips (520 nm) on their inner walls were used as photoreactors to irradiate the caged molecules in photochemical studies. The light flux was determined using liquid-phase potassium ferrioxalate actinomentry.
The inventors studied the kinetics of uncaging of the two caged Glu designs (TC and BODIPY) and compared their efficiency of uncaging under identical conditions. They were irradiated with blue light at 467 nm and green light at 520 nm, respectively. Referring to FIG. 10, a temperature-controlled rig with purchased LED strips was set up.
The process for conducting the irradiation experiments comprised the following:
Sample Preparation: The caged molecules (containing the BODIPY photocage and Glutamate) were prepared in a solvent at a predetermined concentration. The solution was carefully prepared to ensure uniform dispersion of the molecules.
Irradiation Setup: The irradiation experiments were performed in a custom-built irradiation chamber equipped with the necessary safety measures (FIG. 10). The chamber was designed to prevent any unwanted exposure to the irradiation source and to maintain a controlled environment throughout the experiment.
Irradiation Source: The irradiation source used was from LED light Strips. This source was selected based on its wavelength range, intensity, and compatibility with the caged molecules' photochemistry. The source was positioned within the irradiation chamber to ensure an even and consistent illumination of the sample.
Sample Exposure: The sample solution was placed in a suitable container, ensuring that the solution thickness was uniform to minimize potential variations in the irradiation process. The container was positioned at a specific distance from the irradiation source, and the entire setup was shielded from external light sources to prevent interference.
Irradiation Protocol: The sample was irradiated for a predetermined duration, with the irradiation source emitting light at the desired wavelength range. The irradiation time was carefully controlled to maintain consistency across experiments.
Monitoring and Data Collection: Throughout the irradiation process, the changes in the sample's properties were monitored using spectroscopic techniques such as UV-Vis spectroscopy and NMR spectroscopy, depending on the specific properties being investigated. Data was collected at regular intervals to track the progress of the photochemical reaction.
Control Experiments: To validate the effects of irradiation, control experiments were conducted using identical conditions but without the presence of the caged molecules.
The quantification of the laser flux comprised the following:
A liquid-phase potassium ferrioxalate actinometer was prepared to measure the intensity of light in our irradiation rig, i.e., light flux, necessary for measurement of the quantum yields of various photochemical reactions.

[2] = UV-Vis absorption of caged Glu compounds; assay type: physicochemical; conditions: for λMax: maximum absorbance wavelength; for ε(λMax): molar attenuation constant at λMax
Procedure: as §1
Referring to FIG. 6, a comprehensive assessment of 11 visible light-activated caged Glutamate (Glu) compounds was conducted using photophysical methods.

[3] = prior art caged Glu; cited from earlier work

Compound | Φ (quantum yield / QE of uncaging) [1] | εΦ (photo-cross-section) [1] [M⁻¹ cm⁻¹] | λMax [2] [nm] | ε(λMax) [2] [M⁻¹ cm⁻¹] | Φ (quantum yield / QE of uncaging) [1]; 8 | Φ (quantum yield / QE of uncaging) ([1]; listed as Me-BODIPY-Br-Glu) | wavelength of visible light that activates / uncages the cage [1] [nm] | absorption maximum [3] [nm] | quantum yield (Φ) [3]
CCC1=C(C)C2=C(COC(=O)NC(CCC(=O)O)C(=O)O)c3c(C)c(CC)c(C)n3[B-](F)(F)[N+]2=C1C (centres unmarked) [F-BODIPY-Et-N-Glu (5), (((2,8-Diethyl-5,5-difluoro-1,3,7,9-tetramethyl-5H-414,514-dipyrrolo[1,2-c: 2′, 1′-f] [1,3,2]diazaborinin-10-yl)methoxy)carbonyl) glutamic acid] | 0.0001 ± 0.00001 | 10.9 | 542 | 78300 ± 400 |  |  |  |  | 
CC1=C(Br)C(C)=[N+]2C1=C(COC(=O)NC(CCC(=O)O)C(=O)O)c1c(C)c(Br)c(C)n1[B-]2(C)C (centres unmarked) [Me-BODIPY-Br-N-Glu (3), (((2,8-Dibromo-1,3,5,5,7,9-hexamethyl-5H-414,514-dipyrrolo[1,2-c: 2′, 1′-f] [1,3,2]diazaborinin-10-yl)methoxy)carbonyl) glutamic acid] | 0.12 ± 0.04 | 985.6 | 532 | 8213 ± 50 |  |  |  |  | 
CC1=C(Br)C(C)=[N+]2C1=C(COC(=O)CCC(N)C(=O)O)c1c(C)c(Br)c(C)n1[B-]2(C)C (centres unmarked) [Me-BODIPY-Br-Glu (8), 2-Amino-5-((2,8-dibromo-1,3,5,5,7,9-hexamethyl-5H-414,514-dipyrrolo[1,2-c: 2′, 1′-f] [1,3,2]diazaborinin-10-yl)methoxy)-5-oxopentanoic acid] | 0.65 ± 0.01 | 35230.0 | 531 | 54200 ± 240 | 0.65 | 0.65 | 540 |  | 
7-Diethylamino-4-carboxylmethyl-thiocoumarin glutamate [TC-N-Glu (1)] | 0.0017 ± 0.0002 | 38.2 | 461 | 21800 ± 100 |  |  | 445 |  | 
CCC1=C(C)C2=C(COC(=O)CCC(N)C(=O)O)c3c(C)c(CC)c(C)n3[B-](F)(F)[N+]2=C1C (centres unmarked) [F-BODIPY-Et-Glu (10), 2-Amino-5-((2,8-diethyl-5,5-difluoro-1,3,7,9-tetramethyl-5H-414,514-dipyrrolo[1,2-c: 2′, 1′-f] [1,3,2]diazaborinin-10-yl)methoxy)-5-oxopentanoic acid] | 0.0077 ± 0.0004 | 439.0 | 542 | 57200 ± 280 |  |  |  |  | 
CC1=CC(C)=[N+]2C1=C(COC(=O)CCC(N)C(=O)O)c1c(C)cc(C)n1[B-]2(C)C (centres unmarked) [Me-BODIPY-H-Glu (6), 2-Amino-5-((1,3,5,5,7,9-hexamethyl-5H-414,514-dipyrrolo[1,2-c: 2′, 1′-f] [1,3,2]diazaborinin-10-yl)methoxy)-5-oxopentanoic acid] | 0.074 ± 0.002 | 3230.0 | 511 | 43600 ± 200 |  |  |  |  | 
CC1=C(Br)C(C)=[N+]2C1=C(COC(=O)CCC(N)C(=O)O)c1c(C)c(Br)c(C)n1[B-]2(F)F (centres unmarked) [F-BODIPY-Br-Glu (11), 2-Amino-5-((2,8-dibromo-5,5-difluoro-1,3,7,9-tetramethyl-5H-414,514-dipyrrolo[1,2-c: 2′, 1′-f] [1,3,2]diazaborinin-10-yl)methoxy)-5-oxopentanoic acid] | 0.0004 ± 0.00001 | 4.2 | 544 | 10300 ± 80 |  |  |  |  | 
N[C@@H](CCC(=O)N1CCc2c(OCC(=O)O)c([N+](=O)[O-])cc([N+](=O)[O-])c21)C(=O)O [CDNI-Glu] |  |  |  |  |  |  |  | 350 | 0.5

The next lines start with results.

Φ (quantum yield / QE of uncaging) [1] | εΦ (photo-cross-section) [1] [M⁻¹ cm⁻¹] | λMax [2] [nm] | ε(λMax) [2] [M⁻¹ cm⁻¹] | Φ (quantum yield / QE of uncaging) [1]; 8 | Φ (quantum yield / QE of uncaging) ([1]; listed as Me-BODIPY-Br-Glu) | Compound | wavelength of visible light that activates / uncages the cage [1] [nm] | absorption maximum [3] [nm] | quantum yield (Φ) [3]
0.029 ± 0.001 | 1040.0 | 532 | 35700 ± 180 |  |  | CCC1=C(C)C2=C(COC(=O)CCC(N)C(=O)O)c3c(C)c(CC)c(C)n3[B-](C)(C)[N+]2=C1C (centres unmarked) [Me-BODIPY-Et-Glu (7), 2-Amino-5-((2,8-diethyl-1,3,5,5,7,9-hexamethyl-5H-414,514-dipyrrolo[1,2-c: 2′, 1′-f] [1,3,2]diazaborinin-10-yl)methoxy)-5-oxopentanoic acid] |  |  | 
0.095 ± 0.003 | 2270.0 | 532 | 24000 ± 120 |  |  | CCC1=C(C)C2=C(COC(=O)NC(CCC(=O)O)C(=O)O)c3c(C)c(CC)c(C)n3[B-](C)(C)[N+]2=C1C (centres unmarked) [Me-BODIPY-Et-N-Glu (2), (((2,8-Diethyl-1,3,5,5,7,9-hexamethyl-5H-414,514-dipyrrolo[1,2-c: 2′, 1′-f] [1,3,2]diazaborinin-10-yl)methoxy)carbonyl) glutamic acid] |  |  | 
0.0001 ± 0.00002 | 4.7 | 517 | 84600 ± 500 |  |  | CC1=CC(C)=[N+]2C1=C(COC(=O)CCC(N)C(=O)O)c1c(C)cc(C)n1[B-]2(F)F (centres unmarked) [F-BODIPY-H-Glu (9), 2-Amino-5-((5,5-difluoro-1,3,7,9-tetramethyl-5H-414,514-dipyrrolo[1,2-c: 2′, 1′-f] [1,3,2]diazaborinin-10-yl)methoxy)-5-oxopentanoic acid] |  |  | 
0.15 ± 0.01 | 1504.6 | 536 | 10030 ± 70 |  |  | CC1=C(I)C(C)=[N+]2C1=C(COC(=O)NC(CCC(=O)O)C(=O)O)c1c(C)c(I)c(C)n1[B-]2(C)C (centres unmarked) [Me-BODIPY-I-N-Glu (4), (((2,8-Diiodo-1,3,5,5,7,9-hexamethyl-5H-414,514-dipyrrolo[1,2-c: 2′, 1′-f] [1,3,2]diazaborinin-10-yl)methoxy)carbonyl) glutamic acid] |  |  | 
